In patent US20190192427A1, “AZOLE COMPOUND OPHTHALMIC PREPARATION” (BIOTOOL, LLC, priority 2016, published 2019):

Legend:
[1] = Tolerance of eye drops in cataract rats during treatment; type: in vivo, rat; details: eye drops three times a day, 10 weeks
Experimental: (§1) After 3 days of modeling, econazole eye drops were administered three times a day including morning, noon, and evening, at intervals of at least 5 hours. Every group was made up of 10 cases of cataract suffering eyes involved in the test. The mode of administration was directly dropping to the eye to ensure that the drug was completely dripped into the eye. Each case of suffering eye receiving treatment was administrated one drop at a time with an amount of about 20 μL, and was continuously administrated for 10 weeks. All cataract suffering eyes in different treatment groups were observed and judged for signs of symptom ease or symptom relief.

[2] = system: nuclear cataract; experiment: Rat sodium selenite (senile/nuclear) cataract model, eye drops, lens opacity phase by slit lamp; type: in vivo, Wistar rats; details: 10 suffering eyes per group, about 20 μL three times a day, 10 weeks
Experimental: (§2) Rat model of cataract was made: Wistar rats 12 days after birth were selected, male or female, modeled with sodium selenite (senile cataract), each rat was injected subcutaneously in the back neck according to 20 umol/kg body weight. Acupuncture was used to model adult rats (traumatic cataract).
(§3) The opacity of the lens was observed using a slit lamp, and the lens opacity is generally classified into phase 0-V.
(§4) phase 0—Lens are transparent;
(§5) phase I—The cortex around the lens is scattered in small vacuoles;
(§6) phase II—The cortex around the lens is in ring-shaped dense medium vacuoles;
(§7) phase III—Other parts of cortex are in flaky turbidity;
(§8) phase IV—Lens nucleus and perinuclear cortex are turbid;
(§9) phase V—The lens is completely turbid.
as §1

[3] = system: traumatic cataract; experiment: Rat acupuncture (traumatic) cataract model, eye drops, lens opacity phase by slit lamp; type: in vivo, rats; details: 10 suffering eyes per group, about 20 μL three times a day, 10 weeks
Experimental: as §2, §3, §4, §5, §6, §7, §8, §9, §1

Compound: Clc1ccc(COC(Cn2ccnc2)c2ccc(Cl)cc2Cl)cc1 (stereo not shown) [econazole, Econazole]
- discomfort or ocular allergic reaction throughout the treatment [1]: No rat has discomfort or ocular allergic reaction
- number of eyes in phase 0 [2]: 6
- number of eyes in phase I [2]: 0
- number of eyes in phase II [2]: 0
- number of eyes in phase III [2]: 0
- number of eyes in phase IV [2]: 4
- number of eyes in phase V [2]: 0
- number of eyes in phase 0 [3]: 4
- number of eyes in phase I [3]: 5
- number of eyes in phase II [3]: 1
- number of eyes in phase III [3]: 0
- number of eyes in phase IV [3]: 0
- number of eyes in phase V [3]: 0
